Test results published in patent US20060281700A1, “SYNERGISTIC MODULATION OF FLT3 KINASE USING AMINOPYRIMIDINES KINASE MODULATORS” (priority 2005, published 2006).

Columns and labels:
[1] = target: T1, isolated kinase domain of the human FLT3 receptor (a.a. 571-993) (Homo sapiens, UniProt P36888); experiment: FLT3 Fluorescence Polarization Kinase Assay; assay type: biochemical; conditions: 10 nM FLT3 571-993, 150 uM ATP; uncertainty ±10%
T1 construct: isolated kinase domain of the human FLT3 receptor (a.a. 571-993)
T1 sequence (P36888 571-993): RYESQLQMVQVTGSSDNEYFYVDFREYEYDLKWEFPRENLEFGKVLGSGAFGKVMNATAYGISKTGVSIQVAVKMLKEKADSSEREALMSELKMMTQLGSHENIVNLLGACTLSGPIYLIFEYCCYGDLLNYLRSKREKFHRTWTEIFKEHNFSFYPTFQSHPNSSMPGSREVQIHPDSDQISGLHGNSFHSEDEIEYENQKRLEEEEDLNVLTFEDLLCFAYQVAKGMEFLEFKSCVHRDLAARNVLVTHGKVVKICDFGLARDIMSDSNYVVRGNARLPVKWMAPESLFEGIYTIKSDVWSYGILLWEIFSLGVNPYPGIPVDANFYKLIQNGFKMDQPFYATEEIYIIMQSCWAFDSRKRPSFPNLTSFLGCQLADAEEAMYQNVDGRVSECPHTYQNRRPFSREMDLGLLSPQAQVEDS
Protocol: FLT3 Fluorescence Polarization Kinase Assay
To determine the activity of the FLT3 inhibitors of Formula I′ in an in vitro kinase assay, inhibition of the isolated kinase domain of the human FLT3 receptor (a.a. 571-993) was performed using the following fluorescence polarization (FP) protocol. The FLT3 FP assay utilizes the fluorescein-labeled phosphopeptide and the anti-phosphotyrosine antibody included in the Panvera Phospho-Tyrosine Kinase Kit (Green) supplied by Invitrogen. When FLT3 phosphorylates polyGlu4Tyr, the fluorescein-labeled phosphopeptide is displaced from the anti-phosphotyrosine antibody by the phosphorylated poly Glu4Tyr, thus decreasing the FP value. The FLT3 kinase reaction is incubated at room temperature for 30 minutes under the following conditions: 10 nM FLT3 571-993, 20 ug/mL poly Glu4Tyr, 150 uM ATP, 5 mM MgCl2, 1% compound in DMSO. The kinase reaction is stopped with the addition of EDTA. The fluorescein-labeled phosphopeptide and the anti-phosphotyrosine antibody are added and incubated for 30 minutes at room temperature.
All data points are an average of triplicate samples. Inhibition and IC50 data analysis was done with GraphPad Prism using a non-linear regression fit with a multiparamater, sigmoidal dose-response (variable slope) equation.

[2] = system: MV4-11 cells; experiment: Inhibition of MV4-11 cell proliferation (CellTiterGlo, 72 hours); assay type: cell-based; conditions: Homo sapiens; 72 hours growth; uncertainty ±20%
Protocol: Inhibition Of MV4-11 and Baf3 Cell Proliferation
To assess the cellular potency of the FLT3 inhibitors of Formula I′, FLT3 specific growth inhibition was measured in the leukemic cell line MV4-11 (ATCC Number: CRL-9591). […] MV4-11 cells cannot grow and survive without active FLT3ITD.
To measure proliferation inhibition by test compounds, the luciferase based CellTiterGlo reagent (Promega), which quantifies total cell number based on total cellular ATP concentration, was used. Cells are plated at 10,000 cells per well in 100 ul of in RPMI media containing penn/strep, 10% FBS and 1 ng/ml GM-CSF or 1 ng/ml IL-3 for MV4-11 and Baf3 cells respectively.
Compound dilutions or 0.1% DMSO (vehicle control) are added to cells and the cells are allowed to grow for 72 hours at standard cell growth conditions (37° C., 5% CO2). For activity measurements in MV4-11 cells grown in 50% plasma, cells were plated at 10,000 cells per well in a 1:1 mixture of growth media and human plasma (final volume of 100 μL). To measure total cell growth an equal volume of CellTiterGlo reagent was added to each well, according to the manufacturer's instructions, and luminescence was quantified. Total cell growth was quantified as the difference in luminescent counts (relative light units, RLU) of cell number at Day 0 compared to total cell number at Day 3 (72 hours of growth and/or compound treatment). One hundred percent inhibition of growth is defined as an RLU equivalent to the Day 0 reading. Zero percent inhibition was defined as the RLU signal for the DMSO vehicle control at Day 3 of growth. All data points are an average of triplicate samples. […] Inhibition and IC50 data analysis was done with GraphPad Prism using a non-linear regression fit with a multiparamater, sigmoidal dose-response (variable slope) equation.
MV4-11 cells express the FLT3 internal tandem duplication mutation, and thus are entirely dependent upon FLT3 activity for growth. […] In contrast, the Baf3 cell proliferation is driven by the cytokine IL-3 and thus are used as a non-specific toxicity control for test compounds.

Row | Structure (SMILES) | IC50 [1] | IC50 [2]
1 | CO/N=C/c1c(N)ncnc1N1CCC(NC(=O)Nc2ccc(C(C)C)cc2)C1 (stereo not shown) [Number 30, 1-{1-[6-Amino-5-(methoxyimino-methyl)-pyrimidin-4-yl]-pyrrolidin-3-yl}-3-(4-isopropyl-phenyl)-urea] | 4700 nM | 209 nM
2 | CC(C)c1ccc(NC(=O)NC2CCN(c3ncnc(N)c3/C=N/OCCN)C2)cc1 (stereo not shown) [Number 27, 1-(1-{6-Amino-5-[(2-amino-ethoxyimino)-methyl]-pyrimidin-4-yl}-pyrrolidin-3-yl)-3-(4-isopropyl-phenyl)-urea] | > 10000 nM | 1700 nM

These reach a lower IC50 [1]. Values come first.

Row | IC50 [1] | IC50 [2] | Structure (SMILES)
3 | 198 nM | 1100 nM | CO/N=C/c1c(N)ncnc1N1CCC(NC(=O)Nc2ccc(N3CCCC3)cc2)CC1 [Number 24, 1-{1-[6-Amino-5-(methoxyimino-methyl)-pyrimidin-4-yl]-piperidin-4-yl}-3-(4-pyrrolidin-1-yl-phenyl)-urea]
4 | 1800 nM | 1400 nM | CO/N=C/c1c(N)ncnc1N1CCC(NC(=O)Cc2ccc(C(C)C)cc2)CC1 [Number 16, N-{1-[6-Amino-5-(methoxyimino-methyl)-pyrimidin-4-yl]-piperidin-4-yl}-2-(4-isopropyl-phenyl)-acetamide]
5 | 820 nM | 2800 nM | CC(C)Oc1ccc(NC(=O)OC2CCN(c3ncnc(N)c3/C=N/OCCN3CCOCC3)CC2)cc1 [Number 3, (4-Isopropoxy-phenyl)-carbamic acid 1-{6-amino-5-[(2-morpholin-4-yl-ethoxyimino)-methyl]-pyrimidin-4-yl}-piperidin-4-yl ester]
